Where only a bound is given, the exact number is not on record here.

This assay addresses recombinant human His-ATG7 enzyme (Homo sapiens (Human), UniProt O95352). The experiment in a line: ATG7 Enzyme Assay (HTRF/FRET, ATG3-GST and Flag-Gabarap). Type of assay: biochemical. The conditions noted are these: for inhibition at 0.123 µM: Concentration 0.123 μM; for inhibition at 0.111 µM: Concentration 0.111 μM. In short, it runs like this: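 HTRF read-out after 2 h at 24° C, using Eu-cryptate anti-Flag and XL-APC anti-GST antibodies in an EDTA stop buffer. The preceding 105 min, 24° C reaction (pH 7.5) held 10 μM ATP, 5 nM each ATG3-GST and Flag-Gabarap, and 0.15 nM human His-ATG7. Values are IC50 or percent inhibition at one concentration.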

Chain of recombinant human His-ATG7 enzyme (O95352 whole entry): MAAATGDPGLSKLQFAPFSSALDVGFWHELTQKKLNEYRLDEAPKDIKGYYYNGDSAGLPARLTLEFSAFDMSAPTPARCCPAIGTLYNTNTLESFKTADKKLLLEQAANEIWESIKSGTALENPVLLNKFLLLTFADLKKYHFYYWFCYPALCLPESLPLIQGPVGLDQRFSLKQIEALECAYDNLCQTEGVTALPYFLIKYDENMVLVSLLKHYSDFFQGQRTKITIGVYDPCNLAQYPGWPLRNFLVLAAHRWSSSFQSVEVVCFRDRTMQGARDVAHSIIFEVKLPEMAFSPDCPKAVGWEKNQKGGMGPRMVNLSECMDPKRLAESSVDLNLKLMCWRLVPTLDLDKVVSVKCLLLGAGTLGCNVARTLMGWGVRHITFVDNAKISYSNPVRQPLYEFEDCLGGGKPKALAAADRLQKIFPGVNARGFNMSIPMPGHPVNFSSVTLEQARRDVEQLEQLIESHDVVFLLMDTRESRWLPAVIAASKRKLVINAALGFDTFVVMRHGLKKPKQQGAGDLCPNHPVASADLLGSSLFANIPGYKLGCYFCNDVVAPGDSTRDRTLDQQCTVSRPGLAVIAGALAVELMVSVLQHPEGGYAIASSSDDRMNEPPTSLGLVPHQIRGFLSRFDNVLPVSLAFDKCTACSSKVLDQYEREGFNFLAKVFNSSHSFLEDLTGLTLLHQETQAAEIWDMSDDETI

Consider `CN(C)CCSc1nn([C@@H]2O[C@H](COS(N)(=O)=O)[C@@H](O)[C@H]2O)c2ncnc(N)c12` [Compound I-80, [(2R,3S,4R,5R)-5-(4-amino-3-{[2-(dimethylamino)ethyl]sulfanyl}-1H-pyrazolo[3,4-d]pyrimidin-1-yl)-3,4-dihydroxytetrahydrofuran-2-yl]methyl sulfamate], for which the IC50 lay within 100 to 500 nM. Also, the inhibition at 0.123 µM (read-out: Percent Inhibition) is 51%.

In the case of `Nc1ncnc2c1c(SCCO)nn2[C@H]1C[C@H](O)[C@@H](COS(N)(=O)=O)O1` [Compound I-162, [(2R,3S,5R)-5-{4-amino-3-[(2-hydroxyethyl)sulfanyl]-1H-pyrazolo[3,4-d]pyrimidin-1-yl}-3-hydroxytetrahydrofuran-2-yl]methyl Sulfamate], the IC50 fell in the range of 100 to 500 nM. In addition, the inhibition at 0.111 µM (read-out: Percent Inhibition) is 50%. `Nc1ncnc2c1c(Sc1ccccc1Cl)nn2[C@@H]1O[C@H](COS(N)(=O)=O)[C@@H](O)[C@H]1O` [Compound I-78, [(2R,3S,4R,5R)-5-{4-amino-3-[(2-chlorophenyl)sulfanyl]-1H-pyrazolo[3,4-d]pyrimidin-1-yl}-3,4-dihydroxytetrahydrofuran-2-yl]methyl sulfamate]: the IC50 lay in the range of 20 to 50 nM. Moreover, for the setting “read-out: Percent Inhibition”, the inhibition at 0.123 µM turned out to be 80%. With `Nc1ncnc2c1cnn2[C@@H]1O[C@H](COS(N)(=O)=O)[C@@H](O)[C@H]1O` [Compound I-48, [(2R,3S,4R,5R)-5-(4-amino-1H-pyrazolo[3,4-d]pyrimidin-1-yl)-3,4-dihydroxytetrahydrofuran-2-yl]methyl sulfamate], the IC50 fell in the range of 100 to 500 nM. In addition, the inhibition at 0.069 µM (Concentration 0.069 μM, read-out: Percent Inhibition) came out at 16%. `Nc1ncnc2c1c(Sc1ccccc1F)nn2[C@H]1C[C@H](O)[C@H](COS(N)(=O)=O)O1` [Compound I-215, [(2S,3S,5R)-5-{4-amino-3-[(2-fluorophenyl)sulfanyl]-1H-pyrazolo[3,4-d]pyrimidin-1-yl}-3-hydroxytetrahydrofuran-2-yl]methyl sulfamate]: the IC50 was 100 to 500 nM. Further, the inhibition at 0.111 µM (read-out: Percent Inhibition) worked out at 45%.

As to `COCCSc1nn([C@@H]2O[C@H](COS(N)(=O)=O)[C@@H](O)[C@@H]2F)c2ncnc(N)c12` [Compound I-154, [(2R,3R,4S,5R)-5-{4-amino-3-[(2-methoxyethyl)sulfanyl]-1H-pyrazolo[3,4-d]pyrimidin-1-yl}-4-fluoro-3-hydroxytetrahydrofuran-2-yl]methyl sulfamate], the concentration for half-maximal inhibition (IC50) was 50 to 100 nM. For the same compound, the inhibition at 0.111 µM (read-out: Percent Inhibition) is 64%. On to `COc1nn([C@H]2C[C@H](O)[C@@H](COS(N)(=O)=O)O2)c2ncnc(N)c12` [Compound I-190, [(2R,3S,5R)-5-(4-amino-3-methoxy-1H-pyrazolo[3,4-d]pyrimidin-1-yl)-3-hydroxytetrahydrofuran-2-yl]methyl Sulfamate], for which the IC50 is 100 to 500 nM. Further, under “read-out: Percent Inhibition”, the inhibition at 0.123 µM was found to be 35%. `Nc1ncnc2c1c(Sc1cccc(F)c1)nn2[C@@H]1O[C@H](COS(N)(=O)=O)[C@@H](O)[C@@H]1F` [Compound I-116, [(2R,3R,4S,5R)-5-{4-amino-3-[(3-fluorophenyl)sulfanyl]-1H-pyrazolo[3,4-d]pyrimidin-1-yl}-4-fluoro-3-hydroxytetrahydrofuran-2-yl]methyl sulfamate]: the half-inhibitory concentration (IC50) was 20 to 50 nM. Besides, the inhibition at 0.111 µM (read-out: Percent Inhibition) is 75%. Turning to `CC(Sc1nn([C@@H]2O[C@H](COS(N)(=O)=O)[C@@H](O)[C@@H]2F)c2ncnc(N)c12)C(F)(F)F` (mixture of isomers) [Compound I-101, [(2R,3R,4S,5R)-5-(4-amino-3-{[(2R)-1,1,1-trifluoropropan-2-yl]sulfanyl}-1H-pyrazolo[3,4-d]pyrimidin-1-yl)-4-fluoro-3-hydroxytetrahydrofuran-2-yl]methyl Sulfamate and [(2R,3R,4S,5R)-5-(4-amino-3-{[(2S)-1,1,1-trifluoropropan-2-yl]sulfanyl}-1H-pyrazolo[3,4-d]pyrimidin-1-yl)-4-fluoro-3-hydroxytetrahydrofuran-2-yl]methyl Sulfamate], the IC50 was above 500 nM. Also, the inhibition at 0.111 µM (read-out: Percent Inhibition) is 13%. For the compound `Nc1ncnc2c1c(Sc1cc3c(cc1F)CCC3)nn2[C@H]1C[C@H](O)[C@@H](COS(N)(=O)=O)O1` [Compound I-203, [(2R,3S,5R)-5-{4-amino-3-[(6-fluoro-2,3-dihydro-1H-inden-5-yl)sulfanyl]-1H-pyrazolo[3,4-d]pyrimidin-1-yl}-3-hydroxytetrahydrofuran-2-yl]methyl Sulfamate], the IC50 was in the range of 50 to 100 nM. Besides, the inhibition at 0.111 µM (read-out: Percent Inhibition) came to 58%. Regarding `Nc1ncnc2c1c(Sc1nnc3ccccn13)nn2[C@@H]1O[C@H](COS(N)(=O)=O)[C@@H](O)[C@@H]1F` [Compound I-156, {(2R,3R,4S,5R)-5-[4-amino-3-([1,2,4]triazolo[4,3-a]pyridin-3-ylsulfanyl)-1H-pyrazolo[3,4-d]pyrimidin-1-yl]-4-fluoro-3-hydroxytetrahydrofuran-2-yl}methyl sulfamate], the IC50 lay within 100 to 500 nM. Besides, the inhibition at 0.111 µM (read-out: Percent Inhibition) was found to be 30%. For the compound `CCc1nn([C@H]2C[C@H](O)[C@H](COS(N)(=O)=O)O2)c2ncnc(N)c12` [Compound I-212, [(2S,3S,5R)-5-(4-amino-3-ethyl-1H-pyrazolo[3,4-d]pyrimidin-1-yl)-3-hydroxytetrahydrofuran-2-yl]methylsulfamate], under “read-out: Percent Inhibition”, the inhibition at 0.111 µM worked out at 7%. Turning to `Nc1ncnc2c1c(-c1ncco1)nn2[C@@H]1O[C@H](COS(N)(=O)=O)[C@@H](O)[C@H]1O` [Compound I-57, {(2R,3S,4R,5R)-5-[4-amino-3-(1,3-oxazol-2-yl)-1H-pyrazolo[3,4-d]pyrimidin-1-yl]-3,4-dihydroxytetrahydrofuran-2-yl}methyl sulfamate], the IC50 is above 500 nM. Also, the inhibition at 0.123 µM (read-out: Percent Inhibition) was found to be 13%. Take `C=CCOc1nn([C@@H]2O[C@H](COS(N)(=O)=O)[C@@H](O)[C@H]2O)c2ncnc(N)c12` [Compound I-71, {(2R,3S,4R,5R)-5-[3-(allyloxy)-4-amino-1H-pyrazolo[3,4-d]pyrimidin-1-yl]-3,4-dihydroxytetrahydrofuran-2-yl}methyl Sulfamate]: the IC50 was in the range of 100 to 500 nM. Besides, the inhibition at 0.123 µM (read-out: Percent Inhibition) turned out to be 38%. In the case of `Nc1ncnc2c1c(OC(F)F)nn2[C@H]1C[C@H](O)[C@@H](COS(N)(=O)=O)O1` [Compound I-195, {(2R,3S,5R)-5-[4-amino-3-(difluoromethoxy)-1H-pyrazolo[3,4-d]pyrimidin-1-yl]-3-hydroxytetrahydrofuran-2-yl}methyl Sulfamate], the IC50 lay in the range of 50 to 100 nM. In addition, the inhibition at 0.111 µM (read-out: Percent Inhibition) turned out to be 53%.

As for `Nc1ncnc2c1c(SCC1CC1)nn2[C@@H]1O[C@H](COS(N)(=O)=O)[C@@H](O)[C@H]1O` [Compound I-50, [(2R,3S,4R,5R)-5-{4-amino-3-[(cyclopropylmethyl)sulfanyl]-1H-pyrazolo[3,4-d]pyrimidin-1-yl}-3,4-dihydroxytetrahydrofuran-2-yl]methyl sulfamate], the IC50 is below 20 nM. Moreover, the inhibition at 0.111 µM (read-out: Percent Inhibition) came out at 88%. On the same counts, the results for `CC(C)(C)c1ccc(Sc2nn([C@H]3C[C@H](O)[C@@H](COS(N)(=O)=O)O3)c3ncnc(N)c23)cc1` [Compound I-163, [(2R,3S,5R)-5-{4-amino-3-[(4-tert-butylphenyl)sulfanyl]-1H-pyrazolo[3,4-d]pyrimidin-1-yl}-3-hydroxytetrahydrofuran-2-yl]methyl sulfamate] are 50 to 100 nM and 58%. Take `Nc1ncnc2c1c(SC1CCCC1O)nn2[C@@H]1O[C@H](COS(N)(=O)=O)[C@@H](O)[C@H]1O` (mixture of isomers) [Compound I-54, [(2R,3S,4R,5R)-5-(4-amino-3-{[(1R,2R)-2-hydroxycyclopentyl]sulfanyl}-1H-pyrazolo[3,4-d]pyrimidin-1-yl)-3,4-dihydroxytetrahydrofuran-2-yl]methyl Sulfamate and [(2R,3S,4R,5R)-5-(4-amino-3-{[(1S,2S)-2-hydroxycyclopentyl]sulfanyl}-1H-pyrazolo[3,4-d]pyrimidin-1-yl)-3,4-dihydroxytetrahydrofuran-2-yl]methyl Sulfamate]: the IC50 fell in the range of 20 to 50 nM. Besides, the inhibition at 0.123 µM (read-out: Percent Inhibition) was found to be 75%. Take `Cc1cccc(Sc2nn([C@H]3C[C@H](O)[C@@H](COS(N)(=O)=O)O3)c3ncnc(N)c23)c1` [Compound I-205, [(2R,3S,5R)-5-{4-amino-3-[(3-methylphenyl)sulfanyl]-1H-pyrazolo[3,4-d]pyrimidin-1-yl}-3-hydroxytetrahydrofuran-2-yl]methyl sulfamate]: the IC50 fell in the range of 50 to 100 nM. The inhibition at 0.111 µM (read-out: Percent Inhibition) turned out to be 55%. With `Nc1ncnc2c1c(Sc1ccc3ccccc3n1)nn2[C@H]1C[C@H](O)[C@@H](COS(N)(=O)=O)O1` [Compound I-183, {(2R,3S,5R)-5-[4-amino-3-(quinolin-2-ylsulfanyl)-1H-pyrazolo[3,4-d]pyrimidin-1-yl]-3-hydroxytetrahydrofuran-2-yl}methyl sulfamate], the IC50 lay in the range of 100 to 500 nM. Moreover, the inhibition at 0.111 µM (read-out: Percent Inhibition) was 28%.

Consider `Nc1ncnc2c1c(Sc1cccc(Cl)c1)nn2[C@H]1C[C@H](O)[C@@H](COS(N)(=O)=O)O1` [Compound I-179, [(2R,3S,5R)-5-{4-amino-3-[(3-chlorophenyl)sulfanyl]-1H-pyrazolo[3,4-d]pyrimidin-1-yl}-3-hydroxytetrahydrofuran-2-yl]methyl sulfamate], for which the IC50 was in the range of 100 to 500 nM. The inhibition at 0.111 µM (read-out: Percent Inhibition) came out at 50%. On the same counts, the results for `Nc1ncnc2c1cnn2[C@H]1C[C@H](O)C(COS(N)(=O)=O)O1` (stereo in doubt) [Compound I-226, [(2S,3S,5R)-5-(4-amino-1H-pyrazolo[3,4-d]pyrimidin-1-yl)-3-hydroxytetrahydrofuran-2-yl]methyl sulfamate] are above 500 nM and 5%.

(Values after patent US10865208B2, “ATG7 inhibitors and the uses thereof” (Millennium Pharmaceuticals, Inc., priority 2016, dated 2020).)
